In patent publication US12539292B2, “BRM targeting compounds and associated methods of use” (Arvinas Operations, Inc., priority 2018, dated 2026):
Where two headings read alike, the source gives them in different places. Each block holds one compound with its values, some of them ahead of it.

Target: T1, BRM (Homo sapiens, UniProt P51531)
T1 construct: In-Cell Western Screen of BRM Degradation in SW1573 Cells; endogenous in cells; host or cells: SW1573
Assay: In-cell Western screen of BRM degradation in SW1573 cells (Dmax and DC50)
Type: cell-based
In short: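 Adherent SW1573 cultures exposed to test compounds for 18-20 h were processed for in-cell Western after PFA fixation and detergent permeabilization. BRM degradation was reported as Dmax and DC50.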

[1] = BRM degradation, SW1573 cells, read-out: DC50
[2] = BRM degradation, SW1573 cells, tested at the top concentration of between 0.3 and 10 μM, read-out: Dmax (%) (% degraded)
[3] = SW1573, % degraded, when tested at the top concentration of between 0.3 and 10 μM, read-out: BRM Dmax (%)
[4] = target protein degradation, read-out: BRM DC50
[5] = degradation of BRM, read-out: BRM DC50
[6] = BRM degradation, SW1573 cells, when tested at the top concentration of between 0.3 and 10 μM, read-out: Dmax (%) (% degraded)
[7] = BRM degradation, SW1573 cells, Table 2D, read-out: *DC50

T1 sequence (P51531 whole entry): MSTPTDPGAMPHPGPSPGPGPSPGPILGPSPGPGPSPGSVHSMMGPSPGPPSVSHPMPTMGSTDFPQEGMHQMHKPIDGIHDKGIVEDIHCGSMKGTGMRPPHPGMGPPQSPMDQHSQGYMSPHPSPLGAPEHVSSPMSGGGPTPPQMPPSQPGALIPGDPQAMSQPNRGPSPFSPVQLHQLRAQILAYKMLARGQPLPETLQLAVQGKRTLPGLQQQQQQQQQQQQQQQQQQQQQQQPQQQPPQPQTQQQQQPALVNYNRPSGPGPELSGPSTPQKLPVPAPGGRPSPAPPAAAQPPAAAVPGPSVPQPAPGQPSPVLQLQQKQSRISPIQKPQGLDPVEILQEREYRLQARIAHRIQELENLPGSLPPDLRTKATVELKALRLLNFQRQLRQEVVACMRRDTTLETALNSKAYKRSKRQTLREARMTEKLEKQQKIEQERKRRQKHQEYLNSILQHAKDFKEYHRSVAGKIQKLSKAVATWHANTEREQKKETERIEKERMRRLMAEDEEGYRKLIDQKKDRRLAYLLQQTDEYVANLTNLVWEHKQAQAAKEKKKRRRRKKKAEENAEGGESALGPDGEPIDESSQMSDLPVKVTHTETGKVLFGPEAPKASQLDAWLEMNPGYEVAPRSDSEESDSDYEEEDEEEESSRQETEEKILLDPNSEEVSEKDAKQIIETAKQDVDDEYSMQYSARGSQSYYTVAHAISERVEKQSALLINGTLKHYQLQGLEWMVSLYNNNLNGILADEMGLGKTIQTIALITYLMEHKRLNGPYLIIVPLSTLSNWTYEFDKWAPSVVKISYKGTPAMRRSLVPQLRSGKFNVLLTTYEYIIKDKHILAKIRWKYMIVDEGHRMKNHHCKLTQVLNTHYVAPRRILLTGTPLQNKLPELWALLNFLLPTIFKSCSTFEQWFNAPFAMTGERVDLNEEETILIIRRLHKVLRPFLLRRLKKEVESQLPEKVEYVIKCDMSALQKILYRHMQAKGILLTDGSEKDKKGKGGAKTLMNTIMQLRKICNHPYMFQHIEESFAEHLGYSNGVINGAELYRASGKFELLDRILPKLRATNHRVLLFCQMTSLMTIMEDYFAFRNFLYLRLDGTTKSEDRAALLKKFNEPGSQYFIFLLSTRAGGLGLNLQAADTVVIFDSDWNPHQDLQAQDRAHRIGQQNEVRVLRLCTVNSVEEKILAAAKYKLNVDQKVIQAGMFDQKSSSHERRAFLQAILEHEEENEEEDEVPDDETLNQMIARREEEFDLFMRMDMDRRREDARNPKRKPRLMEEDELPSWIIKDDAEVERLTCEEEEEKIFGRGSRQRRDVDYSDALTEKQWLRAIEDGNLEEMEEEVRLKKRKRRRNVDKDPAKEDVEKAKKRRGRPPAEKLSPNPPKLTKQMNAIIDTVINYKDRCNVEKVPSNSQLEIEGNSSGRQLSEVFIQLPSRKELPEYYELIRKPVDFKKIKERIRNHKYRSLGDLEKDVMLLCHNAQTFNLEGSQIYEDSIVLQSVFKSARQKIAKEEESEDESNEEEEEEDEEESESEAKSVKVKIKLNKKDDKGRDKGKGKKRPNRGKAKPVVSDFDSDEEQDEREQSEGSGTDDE

SMILES: Cc1ncsc1-c1ccc(CNC(=O)[C@@H]2C[C@@H](O)CN2C(=O)[C@@H](c2cc(OCCN3CCC(O[C@H]4C[C@H](Oc5cc(N6C7CCC6CN(c6cc(-c8ccccc8O)nnc6N)C7)ccn5)C4)CC3)no2)C(C)C)c(C#N)c1 [compound 225, (2S,4R)-1-((2R)-2-(3-(2-(4-((1r,3R)-3-((4-(3-(3-amino-6-(2-hydroxyphenyl)pyridazin-4-yl)-3,8-diazabicyclo[3.2.1]octan-8-yl)pyridin-2-yl)oxy)cyclobutoxy)piperidin-1-yl)ethoxy)isoxazol-5-yl)-3-methylbutanoyl)-N-(2-cyano-4-(4-methylthiazol-5-yl)benzyl)-4-hydroxypyrrolidine-2-carboxamide]
DC50 [1]: < 0.0025 µM
Dmax [2]: > 75%

SMILES: Cc1ncsc1-c1ccc([C@H](C)NC(=O)[C@@H]2C[C@@H](O)CN2C(=O)[C@H](c2cc(OCCCCN3CCN(CCCCOc4cc(N5C6CCC5CN(c5cc(-c7ccccc7O)nnc5N)C6)ccn4)CC3)no2)C(C)C)cc1 [compound 389, (2S,4R)-1-((2S)-2-(3-(4-(4-(4-((4-(3-(3-amino-6-(2-hydroxyphenyl)pyridazin-4-yl)-3,8-diazabicyclo[3.2.1]octan-8-yl)pyridin-2-yl)oxy)butyl)piperazin-1-yl)butoxy)isoxazol-5-yl)-3-methylbutanoyl)-4-hydroxy-N-((S)-1-(4-(4-methylthiazol-5-yl)phenyl)ethyl)pyrrolidine-2-carboxamide]
Dmax [3]: > 75%
DC50 [4]: 0.01 to 0.03 µM

SMILES: Cc1cc([C@@H](C(=O)N2C[C@H](O)C[C@H]2C(=O)N[C@@H](C)c2ccc(-c3scnc3C)cc2)[C@@H](C)COCCCOc2cc(N3C4CCC3CN(c3cc(-c5ccccc5O)nnc3N)C4)ccn2)on1 [compound 494, (2S,4R)-1-((2S,3R)-4-(3-((4-(3-(3-amino-6-(2-hydroxyphenyl)pyridazin-4-yl)-3,8-diazabicyclo[3.2.1]octan-8-yl)pyridin-2-yl)oxy)propoxy)-3-methyl-2-(3-methylisoxazol-5-yl)butanoyl)-4-hydroxy-N-((S)-1-(4-(4-methylthiazol-5-yl)phenyl)ethyl)pyrrolidine-2-carboxamide]
DC50 (BRM degradation, read-out: BRM DC50): < 0.0025 µM
Dmax [3]: > 75%

DC50 [5]: > 0.03 µM
SMILES: CC(C)[C@H](C(=O)N1C[C@H](O)C[C@H]1C(=O)N[C@@H](C)c1ccc(-c2c(F)cnn2C)cc1)c1cc(OCCN2CCN(CCOc3cc(N4C5CCC4CN(c4cc(-c6ccccc6O)nnc4N)C5)ccn3)CC2)no1 [compound 409, (2S,4R)-1-((2S)-2-(3-(2-(4-(2-((4-(3-(3-amino-6-(2-hydroxyphenyl)pyridazin-4-yl)-3,8-diazabicyclo[3.2.1]octan-8-yl)pyridin-2-yl)oxy)ethyl)piperazin-1-yl)ethoxy)isoxazol-5-yl)-3-methylbutanoyl)-N-((S)-1-(4-(4-fluoro-1-methyl-1H-pyrazol-5-yl)phenyl)ethyl)-4-hydroxypyrrolidine-2-carboxamide]

SMILES: Cc1cc([C@@H](C(=O)N2C[C@H](O)C[C@H]2C(=O)N[C@@H](C)c2ccc(-c3scnc3C)cc2)[C@@H](C)COCCCCOc2cc(N3C4CCC3CN(c3cc(-c5ccccc5O)nnc3N)C4)ccn2)on1 [compound 431, (2S,4R)-1-((2S,3R)-4-(4-((4-(3-(3-amino-6-(2-hydroxyphenyl)pyridazin-4-yl)-3,8-diazabicyclo[3.2.1]octan-8-yl)pyridin-2-yl)oxy)butoxy)-3-methyl-2-(3-methylisoxazol-5-yl)butanoyl)-4-hydroxy-N-((S)-1-(4-(4-methylthiazol-5-yl)phenyl)ethyl)pyrrolidine-2-carboxamide]
Dmax [3]: > 75%
DC50 [5]: < 0.0025 µM

SMILES: Cc1ncsc1-c1ccc([C@H](C)NC(=O)[C@@H]2C[C@@H](O)CN2C(=O)[C@@H](NC(=O)COCCOCCOCCCCN2CCOC3(CCN(c4cc(-c5ccccc5O)nnc4N)CC3)C2)C(C)(C)C)cc1 [compound 51, (2S,4R)-1-[(2S)-2-(2-[2-[2-(4-[9-[3-amino-6-(2-hydroxyphenyl)pyridazin-4-yl]-1-oxa-4,9-diazaspiro[5.5]undecan-4-yl]butoxy)ethoxy]ethoxy]acetamido)-3,3-dimethylbutanoyl]-4-hydroxy-N-[(1S)-1-[4-(4-methyl-1,3-thiazol-5-yl)phenyl]ethyl]pyrrolidine-2-carboxamide]
DC50 [1]: 0.01 to 0.03 µM
Dmax [6]: > 75%

SMILES: Cc1ncsc1-c1ccc([C@H](C)NC(=O)[C@@H]2C[C@@H](O)CN2C(=O)[C@H](c2cc(OCCOCCOCCCCN3CC4(CCN(c5cc(-c6ccccc6O)nnc5N)CC4)C3)no2)C(C)C)cc1 [compound 71, (2S,4R)-1-((S)-2-(3-(2-(2-(4-(7-(3-amino-6-(2-hydroxyphenyl)pyridazin-4-yl)-2,7-diazaspiro[3.5]nonan-2-yl)butoxy)ethoxy)ethoxy)isoxazol-5-yl)-3-methylbutanoyl)-4-hydroxy-N-((S)-1-(4-(4-methylthiazol-5-yl)phenyl)ethyl)pyrrolidine-2-carboxamide]
DC50 [1]: > 0.03 µM

DC50 [7]: > 0.03 µM
SMILES: Cc1ncsc1-c1ccc([C@H](C)NC(=O)[C@@H]2C[C@@H](O)CN2C(=O)[C@H](c2cc(N3CCC(OC4CCN([C@H]5C[C@H](CN6CCOC7(CCN(c8cc(-c9ccccc9O)nnc8N)CC7)C6)C5)CC4)CC3)no2)C(C)C)cc1 [compound 615, (2S,4R)-1-((S)-2-(3-(4-((1-((1r,3S)-3-((9-(3-amino-6-(2-hydroxyphenyl)pyridazin-4-yl)-1-oxa-4,9-diazaspiro[5.5]undecan-4-yl)methyl)cyclobutyl)piperidin-4-yl)oxy)piperidin-1-yl)isoxazol-5-yl)-3-methylbutanoyl)-4-hydroxy-N-((S)-1-(4-(4-methylthiazol-5-yl)phenyl)ethyl)pyrrolidine-2-carboxamide]

SMILES: Cc1ncsc1-c1ccc([C@H](C)NC(=O)[C@@H]2C[C@@H](O)CN2C(=O)[C@@H](c2cc(OC[C@@H]3C[C@H]3c3ccc(O[C@H]4C[C@H](Oc5cc(N6C7CCC6CN(c6cc(-c8ccccc8O)nnc6N)C7)ccn5)C4)cn3)no2)C(C)C)cn1 [compound 480, (2S,4R)-1-((2R)-2-(3-(((1R,2R)-2-(5-((1r,3R)-3-((4-(3-(3-amino-6-(2-hydroxyphenyl)pyridazin-4-yl)-3,8-diazabicyclo[3.2.1]octan-8-yl)pyridin-2-yl)oxy)cyclobutoxy)pyridin-2-yl)cyclopropyl)methoxy)isoxazol-5-yl)-3-methylbutanoyl)-4-hydroxy-N-((S)-1-(6-(4-methylthiazol-5-yl)pyridin-3-yl)ethyl)pyrrolidine-2-carboxamide]
Dmax [3]: > 75%
DC50 [4]: < 0.0025 µM

SMILES: Cc1cc([C@H](C(=O)N2C[C@H](O)C[C@H]2C(=O)N[C@@H](C)c2ccc(-c3scnc3C)cc2)[C@H](C)COCCCCn2cc(-c3cc(-c4ccccc4O)nnc3N)cn2)on1 [compound 558, (2S,4R)-1-((2R,3S)-4-(4-(4-(3-amino-6-(2-hydroxyphenyl)pyridazin-4-yl)-1H-pyrazol-1-yl)butoxy)-3-methyl-2-(3-methylisoxazol-5-yl)butanoyl)-4-hydroxy-N-((S)-1-(4-(4-methylthiazol-5-yl)phenyl)ethyl) pyrrolidine-2-carboxamide]
DC50 [7]: > 0.03 µM

SMILES: Cc1ncsc1-c1ccc([C@H](C)NC(=O)[C@@H]2C[C@@H](O)CN2C(=O)[C@@H](c2cc(OCCN3CCC(O[C@H]4C[C@H](Oc5cc(N6C7CCC6CN(c6cc(-c8ccccc8O)nnc6N)C7)ccn5)C4)CC3)no2)C(C)C)cc1F [compound 253, (2S,4R)-1-((2R)-2-(3-(2-(4-((1r,3R)-3-((4-(3-(3-amino-6-(2-hydroxyphenyl)pyridazin-4-yl)-3,8-diazabicyclo[3.2.1]octan-8-yl)pyridin-2-yl)oxy)cyclobutoxy)piperidin-1-yl)ethoxy)isoxazol-5-yl)-3-methylbutanoyl)-N-((S)-1-(3-fluoro-4-(4-methylthiazol-5-yl)phenyl)ethyl)-4-hydroxypyrrolidine-2-carboxamide]
DC50 [1]: < 0.0025 µM
Dmax [2]: > 75%

SMILES: CC(C)[C@H](C(=O)N1C[C@H](O)C[C@H]1C(=O)N[C@@H](C)c1ccc(-c2scnc2CO)cc1)c1cc(OCCN2CCC(O[C@H]3C[C@H](Oc4cc(N5C6CCC5CN(c5cc(-c7ccccc7O)nnc5N)C6)ccn4)C3)CC2)no1 [compound 219, (2S,4R)-1-((2S)-2-(3-(2-(4-((1r,3S)-3-((4-(3-(3-amino-6-(2-hydroxyphenyl)pyridazin-4-yl)-3,8-diazabicyclo[3.2.1]octan-8-yl)pyridin-2-yl)oxy)cyclobutoxy)piperidin-1-yl)ethoxy)isoxazol-5-yl)-3-methylbutanoyl)-4-hydroxy-N-((S)-1-(4-(4-(hydroxymethyl)thiazol-5-yl)phenyl)ethyl)pyrrolidine-2-carboxamide]
DC50 [1]: > 0.03 µM

DC50 [1]: < 0.0025 µM
Dmax [6]: > 75%
SMILES: Cc1ncsc1-c1ccc([C@H](C)NC(=O)[C@@H]2C[C@@H](O)CN2C(=O)[C@@H](c2cc(OCCN3CCN(CCC#CCn4cc(-c5cc(-c6ccccc6O)nnc5N)cn4)CC3)no2)C(C)C)cc1 [compound 112, (2S,4R)-1-((R)-2-(3-(2-(4-(5-(4-(3-amino-6-(2-hydroxyphenyl)pyridazin-4-yl)-1H-pyrazol-1-yl)pent-3-yn-1-yl)piperazin-1-yl)ethoxy)isoxazol-5-yl)-3-methylbutanoyl)-4-hydroxy-N-((S)-1-(4-(4-methylthiazol-5-yl)phenyl)ethyl)pyrrolidine-2-carboxamide]

DC50 [1]: > 0.03 µM
Dmax [6]: 50 to 75%
SMILES: Cc1ncsc1-c1ccc(CNC(=O)[C@@H]2C[C@@H](O)CN2C(=O)[C@H](c2cc(OCCOCCOCCOCCOCCn3cc(-c4cc(-c5ccccc5O)nnc4N)cn3)no2)C(C)C)cc1 [compound 18, (2S,4R)-1-[(2S)-2-[3-[(14-[4-[3-amino-6-(2-hydroxyphenyl)pyridazin-4-yl]-1H-pyrazol-1-yl]-3,6,9,12-tetraoxatetradecan-1-yl)oxy]-1,2-oxazol-5-yl]-3-methylbutanoyl]-4-hydroxy-N-[[4-(4-methyl-1,3-thiazol-5-yl)phenyl]methyl]pyrrolidine-2-carboxamide]
